Values of other authors as cited in patent US20050136109A1, “Extended release tablet formulations of venlafaxine” (Wyeth, priority 2003, published 2005).
Where a name gives a salt, the structure may show the parent alone.

Settings: plural daily dosing regimen, immediate release tablets

COc1ccc(C(CN(C)C)C2(O)CCCCC2)cc1 (centres unmarked) [venlafaxine hydrochloride, 1-[2-(dimethylamino)-1-(4-methoxyphenyl)ethyl]-cyclo-hexanol]
Vomiting, patients experiencing: about seventeen | nausea, patients experiencing: about forty five
